Data taken from US11331327B2, “Antibacterial use of halogenated salicylanilides” (UNION therapeutics A/S, priority 2014, dated 2022).
Where two headings read alike, the source gives them in different places.

Test system: S. aureus clinical isolates and S. aureus ATCC 29213
Test: MIC assay according to CLSI criteria, Example 2, S. aureus strains
Assay type: cell-based, Staphylococcus aureus
Settings: Staphylococcus aureus, read-out: MIC
Protocol: Strains were conserved in Luria Bertani (LB) Broth (S. aureus) or Brain Heart Infusion (BHI) (S. pyogenes) supplemented with glycerol 15% (v/v) at −80° C., and reactivated by isolation on LB (S. aureus) or BHI (S. pyogenes) agar plates. Strains were cultivated in Mueller Hinton (MH) Broth-cation adjusted (S. aureus) or BHI (S. pyogenes). All strains were cultivated aerobically (microaerobically for S. pyogenes strains) at 37° C.
Bacterial cultures were stopped in their exponential growth phase and plates were inoculated with the approximate concentration of 5×10^5 cells per well. Plates were incubated at 37° C. for 18 hours (S. aureus) or 24 hours (S. pyogenes).

Measured: MIC

C/C(=C\C(=O)OCCCCCCCCC(=O)O)C[C@@H]1OC[C@H](C[C@@H]2O[C@H]2[C@@H](C)[C@H](C)O)[C@@H](O)[C@H]1O [Mupirocin]
0.125 µg/mL: ATCC29213, strain 115370U | ATCC29213, strain 115690C | ATCC29213, strain ATCC 29213 | ATCC29213, strain EEFIC 01 | ATCC29213, strain EEFIC 02 | ATCC29213, strain K000772 | ATCC 29213 / MRSA, strain MRSA 05 | ATCC 29213 / MRSA, strain MRSA 12 | ATCC 29213 / MRSA, strain MRSA 14
0.5 µg/mL: ATCC29213, strain 9-2625962 | ATCC29213, strain 000274T | ATCC29213, strain 115015T | ATCC29213, strain 115268C | ATCC29213, strain 115561C | ATCC29213, strain 115584D | ATCC29213, strain 115903T | ATCC29213, strain 116122T | ATCC29213, strain E5-1029252 | ATCC29213, strain E5-1029558 | ATCC29213, strain E5-1030472 | ATCC29213, strain E5-1035277 | ATCC29213, strain E5-1035779 | ATCC29213, strain E5-1037958 | ATCC29213, strain E5-1038286 | ATCC29213, strain E5-1041977 | ATCC29213, strain E5-1041979 | ATCC29213, strain E5-1043184 | ATCC29213, strain E5-1046070 | ATCC29213, strain E5-1046085 | ATCC29213, strain E5-1046096 | ATCC29213, strain E5-1047606 | ATCC29213, strain E5-1047924 | ATCC29213, strain E5-1048670 | ATCC29213, strain K000796 | ATCC29213, strain K000863 | ATCC29213, strain K000866 | ATCC29213, strain K115498 | ATCC29213, strain R000019 | ATCC29213, strain R000020 | ATCC29213, strain R000024 | ATCC29213, strain U115579 | ATCC 29213 / MRSA, strain MRSA 11
> 16 µg/mL: ATCC 29213 / MRSA, strain MRSA 08
0.25 µg/mL: ATCC29213, strain 9-1862936 | ATCC29213, strain 9-2642158 | ATCC29213, strain 9-2955245 | ATCC29213, strain 9-26422166 | ATCC29213, strain 000040C | ATCC29213, strain 000041C | ATCC29213, strain 114660U | ATCC29213, strain 115242C | ATCC29213, strain 115263C | ATCC29213, strain 115273C | ATCC29213, strain 115295C | ATCC29213, strain 115303C | ATCC29213, strain 115427C | ATCC29213, strain 115445C | ATCC29213, strain 115628T | ATCC29213, strain 115691T | ATCC29213, strain 115740E | ATCC29213, strain 115810E | ATCC29213, strain E5-1030440 | ATCC29213, strain E5-1030469 | ATCC29213, strain E5-1030482 | ATCC29213, strain E5-1033076 (first line, r202) | ATCC29213, strain E5-1033076 (second line, r203) | ATCC29213, strain E5-1033088 | ATCC29213, strain E5-1033091 | ATCC29213, strain E5-1035284 | ATCC29213, strain E5-1035775 | ATCC29213, strain E5-1037971 | ATCC29213, strain E5-1038279 | ATCC29213, strain E5-1038294 | ATCC29213, strain E5-1039684 | ATCC29213, strain E5-1039697 | ATCC29213, strain E5-1041980 | ATCC29213, strain E5-1041987 | ATCC29213, strain E5-1043668 | ATCC29213, strain E5-1045179 | ATCC29213, strain E5-1046019 | ATCC29213, strain E5-1046020 | ATCC29213, strain E5-1046039 | ATCC29213, strain E5-1046074 | ATCC29213, strain E5-1046297 | ATCC29213, strain E5-1046298 | ATCC29213, strain E5-1046723 | ATCC29213, strain E5-1047585 | ATCC29213, strain E5-1048204 | ATCC29213, strain E5-1048428 | ATCC29213, strain E5-1048654 | ATCC29213, strain K000864 | ATCC29213, strain K115688 | ATCC29213, strain K115689 | ATCC 29213 / MRSA, strain MRSA 01 | ATCC 29213 / MRSA, strain MRSA 02 | ATCC 29213 / MRSA, strain MRSA 03 | ATCC 29213 / MRSA, strain MRSA 04 | ATCC 29213 / MRSA, strain MRSA 06 | ATCC 29213 / MRSA, strain MRSA 07 | ATCC 29213 / MRSA, strain MRSA 09 | ATCC 29213 / MRSA, strain MRSA 10 | ATCC 29213 / MRSA, strain MRSA 13
1 µg/mL: ATCC29213, strain E5-1046296
